The text below walks through data of US11866433B2, “Diarylthiohydantoin compound as androgen receptor antagonist” (CHIA TAI TIANQING PHARMACEUTICAL GROUP CO., LTD., priority 2017, dated 2024).

pIC50: −log10 of the molar value.

This test concerns the target T1, androgen receptor (AR) (Homo sapiens, UniProt P10275).
T1 sequence (P10275 1-920): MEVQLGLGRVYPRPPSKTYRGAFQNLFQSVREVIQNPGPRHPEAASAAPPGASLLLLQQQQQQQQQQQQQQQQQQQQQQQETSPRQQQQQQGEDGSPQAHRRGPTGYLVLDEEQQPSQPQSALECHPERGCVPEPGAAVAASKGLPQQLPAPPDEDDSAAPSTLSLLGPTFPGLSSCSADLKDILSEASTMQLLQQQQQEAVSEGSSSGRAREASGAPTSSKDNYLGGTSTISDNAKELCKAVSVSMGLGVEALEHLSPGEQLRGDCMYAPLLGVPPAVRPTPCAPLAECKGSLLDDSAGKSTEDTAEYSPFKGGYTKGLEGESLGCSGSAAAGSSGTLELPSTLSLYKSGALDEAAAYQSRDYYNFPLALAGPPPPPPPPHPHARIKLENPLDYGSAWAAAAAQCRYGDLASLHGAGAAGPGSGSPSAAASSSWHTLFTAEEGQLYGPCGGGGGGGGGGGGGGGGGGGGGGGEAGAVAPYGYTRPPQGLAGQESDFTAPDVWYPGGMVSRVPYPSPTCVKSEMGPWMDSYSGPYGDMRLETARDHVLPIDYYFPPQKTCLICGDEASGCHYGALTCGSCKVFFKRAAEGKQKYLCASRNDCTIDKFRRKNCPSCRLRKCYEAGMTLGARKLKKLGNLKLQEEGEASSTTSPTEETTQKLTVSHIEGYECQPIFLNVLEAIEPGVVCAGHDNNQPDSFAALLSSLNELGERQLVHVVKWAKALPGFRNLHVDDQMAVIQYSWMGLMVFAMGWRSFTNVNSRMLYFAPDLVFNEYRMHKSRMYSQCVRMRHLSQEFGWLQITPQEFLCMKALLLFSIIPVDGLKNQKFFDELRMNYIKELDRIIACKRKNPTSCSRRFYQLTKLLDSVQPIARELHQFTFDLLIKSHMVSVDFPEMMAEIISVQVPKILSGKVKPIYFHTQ
Put plainly: Antagonism of compounds on nuclear translocation of androgen receptor (PathHunter NHR cell lines). Particulars: antagonist mode, agonist 6a-Fluorotestosterone 0.06 μM (EC80). It is filed as cell-based. As for the experimental part: Example 75 Test of Antagonism of Compounds on Nuclear Translocation of Androgen Receptor (AR)
1. PathHunter NHR cell lines were recovered and cultured for amplification.
2. The cells were inoculated onto a 384-well plate prior to testing, and incubated at 37° C. The serum for culture was filtered with charcoal-dextran to reduce the hormone level therein.
3. In the detection of the antagonistic function, a compound was added to the cells and incubated for 60 min. The working concentration of the test compound was diluted from 10 μM at a 3-fold concentration gradient, respectively including: […]. Then, an agonist 6a-Fluorotestosterone 0.06 μM (concentration: EC80, i.e., 80% agonistic compound concentration) was added, and the mixture was incubated at 37° C. or at room temperature for 3-16 h.
4. Signal detection: 12.5 μL or 15 μL (50%, v/v) PathHunter detection mixed solution (kit: DiscoverX product catalog number: 93-0001 series) was added, and incubated at room temperature for 1 h. The chemiluminescent signal was read with a PerkinElmer Envision™ instrument.
5. Data analysis: The compound activity was analyzed with CBIS data analysis software (ChemInnovation, CA). The calculation formula of the inhibition percent of the antagonist is as follows: IC50 inhibition ratio (%)=[…]×(1−(average RLU value of the test compound−average RLU value of the blank control group)/(average RLU value of EC80 control group−average RLU value of the blank control group)).
`CNc1ncnc2cc(N3C(=S)N(c4ccc(C#N)c(C(F)(F)F)c4)C(=O)C3(C)C)ccc12` [Compound 1]: the pIC50 is < 5.00.
As for `CNC(=O)c1ccc(-n2c(=S)n(-c3ccc(C#N)c(C(F)(F)F)c3)c3ncccc32)cc1F` [Compound 2], the figure is < 5.00.
With `CNC(=O)c1ccc(-n2c(=S)n(-c3ccc(C#N)c(C(F)(F)F)c3)c3nccc(C)c32)cc1F` [Compound 3] the figure was 5.85.
As for `CCN1CCOc2cc(N3C(=O)N(c4ccc(C#N)c(C(F)(F)F)c4)C(=O)C3(C)C)ccc2C1=O` [Compound 4], the figure is 5.66; as for `CC1(C)C(=O)N(c2ccc(C#N)c(C(F)(F)F)c2)C(=S)N1c1ccc2c(=O)n(CC(F)(F)F)cnc2c1` [Compound 5], 5.44.
For the compound `CC1(C)C(=O)N(c2ccc(C#N)c(C(F)(F)F)c2)C(=S)N1c1ccc2c(=O)n(CC(F)(F)F)ncc2c1` [Compound 6], the negative logarithm of the IC50 (pIC50) is 5.51.
In turn, `CC1(C)C(=O)N(c2ccc(C#N)c(C(F)(F)F)c2)C(=S)N1c1ccc2c(cnn2C2COCC2O)c1` (centres unmarked) [Compound 7] had a negative logarithm of the IC50 (pIC50) of 5.37.
With `CC1(C)C(=O)N(c2ccc(C#N)c(C(F)(F)F)c2)C(=S)N1c1ccc2nn(C3COCC3O)cc2c1` (centres unmarked) [Compound 8] the figure was 5.37; with `Cc1nc(OCCO)c2cc(N3C(=S)N(c4ccc(C#N)c(C(F)(F)F)c4)C(=O)C3(C)C)ccc2n1` [Compound 9], 5.27; with `CC1(C)C(=O)N(c2ccc(C#N)c(C(F)(F)F)c2)C(=S)N1c1ccc2nc(C3CC3)nc(OCCO)c2c1` [Compound 11], 5.94.
With `CC1(C)C(=O)N(c2ccc(C#N)c(C(F)(F)F)c2)C(=S)N1c1ccc2ncnc(OCCO)c2c1` [Compound 12] the figure was 5.49; with `CC1(C)C(=O)N(c2ccc(C#N)c(C(F)(F)F)c2)C(=S)N1c1cc(F)c2ncnc(OCCO)c2c1` [Compound 13], 5.22.
The compound `CC1(C)C(=O)N(c2ccc(C#N)c(C(F)(F)F)c2)C(=S)N1c1ccc2nc(OCCO)ncc2c1` [Compound 14] gave a pIC50 of 5.31.
The compound `CC1(C)C(=O)N(c2ccc(C#N)c(C(F)(F)F)c2)C(=S)N1c1ccc2nc(C(F)F)nc(OCCO)c2c1` [Compound 15] showed a negative logarithm of the IC50 (pIC50) of 5.95.
With `CNc1nc(OCCO)c2cc(N3C(=S)N(c4ccc(C#N)c(C(F)(F)F)c4)C(=O)C3(C)C)ccc2n1` [Compound 16] the figure was 5.41; with `CCc1nc(OCCO)c2cc(N3C(=S)N(c4ccc(C#N)c(C(F)(F)F)c4)C(=O)C34CCC4)ccc2n1` [Compound 17], 6.19; with `CC1(C)C(=O)N(c2ccc(C#N)c(C(F)(F)F)c2)C(=S)N1c1cc(F)c2nc(C3CC3)nc(OCCO)c2c1` [Compound 18], 5.55.
As for `CCc1nc(OC2CCOCC2)c2cc(N3C(=S)N(c4ccc(C#N)c(C(F)(F)F)c4)C(=O)C3(C)C)cc(F)c2n1` [Compound 19], the figure is 5.73; as for `CCc1nc(OCCO)c2cc(N3C(=S)N(c4ccc(C#N)c(C(F)(F)F)c4)C(=O)C34CCC4)cc(F)c2n1` [Compound 20], 5.81.
With `CC1(C)C(=O)N(c2ccc(C#N)c(C(F)(F)F)c2)C(=S)N1c1cc(F)c2nc(C(F)F)nc(OCCO)c2c1` [Compound 21] the figure was 5.72; with `CCc1nc(OCCCS(C)(=O)=O)c2cc(N3C(=S)N(c4ccc(C#N)c(C(F)(F)F)c4)C(=O)C3(C)C)cc(F)c2n1` [Compound 22], 5.63; with `CC1(C)C(=O)N(c2cnc(C#N)c(C(F)(F)F)c2)C(=S)N1c1cc(F)c2nc(C3CC3)nc(OCCO)c2c1` [Compound 23], 5.94.
`CCc1nc(OCCN(C)C)c2cc(N3C(=S)N(c4ccc(C#N)c(C(F)(F)F)c4)C(=O)C3(C)C)cc(F)c2n1` [Compound 24] showed a pIC50 of 5.51.
With `CCc1nc(OCCO)c2cc(N3C(=S)N(c4cnc(C#N)c(C(F)(F)F)c4)C(=O)C34CCC4)cc(F)c2n1` [Compound 25], the pIC50 is 5.91. Compared with the last compound, the pIC50 is 0.40 log units higher.
As for `CC1(C)C(=O)N(c2cnc(C#N)c(C(F)(F)F)c2)C(=S)N1c1cc(F)c2nc(C(F)F)nc(OCCO)c2c1` [Compound 26], the figure is 5.77; as for `CCc1nc(OCC(=O)NC)c2cc(N3C(=S)N(c4ccc(C#N)c(C(F)(F)F)c4)C(=O)C3(C)C)cc(F)c2n1` [Compound 28], 5.05; as for `CCc1nc(OCC2COC2)c2cc(N3C(=S)N(c4ccc(C#N)c(C(F)(F)F)c4)C(=O)C3(C)C)cc(F)c2n1` [Compound 29], 6.08.
Take `CCc1cc(=O)n2cc(N3C(=S)N(c4ccc(C#N)c(C(F)(F)F)c4)C(=O)C3(C)C)ccc2n1` [Compound 30]: the negative logarithm of the IC50 (pIC50) is 5.60. This pIC50 lies 0.48 log units lower than the previous one.
With `CCc1nc2ccc(N3C(=S)N(c4ccc(C#N)c(C(F)(F)F)c4)C(=O)C3(C)C)cn2c(=O)c1OC` [Compound 31] the figure was 5.42.
With `CCc1nc(OCC(N)=O)c2cc(N3C(=S)N(c4ccc(C#N)c(C(F)(F)F)c4)C(=O)C3(C)C)cc(F)c2n1` [Compound 32] the figure was 5.17; with `CCc1nc2ccc(N3C(=S)N(c4ccc(C#N)c(C(F)(F)F)c4)C(=O)C3(C)C)cn2c(=O)c1O` [Compound 33], 5.02; with `CCc1nc2c(F)cc(N3C(=S)N(c4ccc(C#N)c(C(F)(F)F)c4)C(=O)C3(C)C)cn2c(=O)c1OC` [Compound 34], 5.49.
`CCc1nc(OCC2(O)CC2)c2cc(N3C(=S)N(c4ccc(C#N)c(C(F)(F)F)c4)C(=O)C3(C)C)cc(F)c2n1` [Compound 36] showed a negative logarithm of the IC50 (pIC50) of 5.25.
As for `CCc1nc2ccc(N3C(=S)N(c4ccc(C#N)c(C(F)(F)F)c4)C(=O)C3(C)C)cn2c(=O)c1OCCOC` [Compound 37], the figure is 5.35.
`CCc1nc2ccc(N3C(=S)N(c4ccc(C#N)c(C(F)(F)F)c4)C(=O)C3(C)C)cn2c(=O)c1OCCO` [Compound 38] showed a negative logarithm of the IC50 (pIC50) of 5.45.
On to `CCc1nc2c(F)cc(N3C(=S)N(c4ccc(C#N)c(C(F)(F)F)c4)C(=O)C3(C)C)cn2c(=O)c1O` [Compound 39], for which the pIC50 is 5.23. Compared with the last compound, the pIC50 is 0.22 log units lower.
As for `CCc1nc2c(F)cc(N3C(=S)N(c4ccc(C#N)c(C(F)(F)F)c4)C(=O)C3(C)C)cn2c(=O)c1OCCOC` [Compound 40], the figure is 5.67; as for `CCc1nc2c(F)cc(N3C(=S)N(c4ccc(C#N)c(C(F)(F)F)c4)C(=O)C3(C)C)cn2c(=O)c1OCCO` [Compound 41], 5.56.
As for `CCc1nc2c(F)cc(N3C(=S)N(c4ccc(C#N)c(C(F)(F)F)c4)C(=O)C3(C)C)cn2c(=O)c1OCC(=O)NC` [Compound 42], the figure is 5.66; as for `CCc1nc2c(F)cc(N3C(=S)N(c4ccc(C#N)c(C(F)(F)F)c4)C(=O)C3(C)C)cn2c(=O)c1OCC(N)=O` [Compound 43], 5.46; as for `CCc1nc(OC2COC[C@H]2O)c2cc(N3C(=S)N(c4ccc(C#N)c(C(F)(F)F)c4)C(=O)C3(C)C)cc(F)c2n1` (some centres unmarked) [Compound 44], 5.42.
In turn, `CCc1nc2c(F)cc(-n3c(=S)n(-c4ccc(C#N)c(C(F)(F)F)c4)c4nccc(C)c43)cc2c(=O)[nH]1` [Compound 45] had a negative logarithm of the IC50 (pIC50) of 5.58.
With `CCc1nc(OC2COC[C@@H]2O)c2cc(N3C(=S)N(c4ccc(C#N)c(C(F)(F)F)c4)C(=O)C3(C)C)cc(F)c2n1` (some centres unmarked) [Compound 46] the figure was 5.51; with `CCc1nc2c(F)cc(N3C(=S)N(c4ccc(C#N)c(C(F)(F)F)c4)C(=O)C3(C)C)cn2c(=O)c1F` [Compound 47], 5.59.
As for `CCc1nc(OCCO)c2cc(N3C(=S)N(c4ccc(C#N)c(C(F)F)c4)C(=O)C3(C)C)ccc2n1` [Compound 48], the figure is 5.44; as for `CC(F)(F)c1nc(OCCO)c2cc(N3C(=S)N(c4ccc(C#N)c(C(F)(F)F)c4)C(=O)C3(C)C)cc(F)c2n1` [Compound 49], 5.84; as for `CCc1nc(OCCO)c2cc(N3C(=S)N(c4ccc(C#N)c(C(F)F)c4)C(=O)C3(C)C)cc(F)c2n1` [Compound 50], 5.46.

By pIC50 is commonly meant the IC50 on a negative log10 scale, so that one unit is a factor of ten. A lower pIC50 goes with a large IC50.
